Experimental data published in US5380834A, “Immuno-suppressive agent” (Ishihara Sangyo Kaisha Ltd., priority 1992, dated 1995).
≈ marks a conversion by molar mass, not a printed value. Read-outs that look alike come from different tables or passages of the source.

Legend:
[1] = system: IgE antibody production from murine spleen B cells; experiment: Effects on the IgE antibody production from murine spleen cells (LPS + IL4); format: cell-based, BALB/c mouse; conditions: Mus musculus, B-cell, 168 h, read-out: IC50 value, IgE antibody production
Description: (§1) Using murine spleen B cells, the effects of the compound of the formula (I) on the IgGl, IgM and IgE antibody production induced by the stimulation by LPS (lipopolysaccharide; Product No. 520.02051, manufactured by Wako Junyaku) and IL4 (interleukin 4), were studied. Namely, spleen cells of a BALB/c mouse were treated with a murine anti-Thy-1 antibody (obtained from Chiba University) and a rabbit complement (Product No. 3051, manufactured by cedarlane) to remove T cells, and 3×10^5 spleen B cells were cultured for 7 days together with 10 μg/ml of LPS, 100 U/ml of mouse-recombinant IL4 (Product No. MIL-4C, manufactured by Genzyme) and each concentration (from […]) of the compound of the formula (I) on a microplate with 96 wells by a 10% FCS-RPMI solution (in an incubator, 5% CO2, at 37° C.).
(§2) For the basic procedure of this test, reference was made to The Journal of Immunology, Vol. 136, p. 4538, (1986).
(§3) The amount of each antibody in the cell culture supernatant hereby obtained, was measured by the following enzyme-immunoassay. Firstly, on a microplate with 96 wells, 1 μg/ml of a rabbit anti-mouse IgGl antibody (Product No. 36243, manufactured by Cappel), 1 μg/ml of a goat anti-mouse IgM antibody (Product No. 0611-0201, manufactured by Cappel) or 10 μg/ml of a rat anti-mouse IgE monoclonal antibody (Product No. LO-ME-2, manufactured by Experimental Immunology) was coated (50 μl/well, at room temperature for 60 minutes), and then a nonspecific bond was blocked by a 0.1% bovine serum albumin-containing 10 mM sodium phosphate buffer (pH 7.2) (at room temperature for 60 minutes). Then, the above-mentioned cell culture supernatant or its diluted solution was added in an amount of 50 μl/well and reacted at room temperature for 60 minutes. Further, an alkaline phosphatase-labeled rabbit anti-mouse IgGl antibody (Product No. 61-0122, manufactured by Zymet) diluted 1,000 times, an alkaline phosphatase-labeled rabbit anti-mouse IgM antibody (Product No. 61-6822, manufactured by Zymet) diluted 2,000 times, or an alkaline phosphatase-labeled goat anti-mouse IgE antibody (Product No. PA-284, manufactured by Binding Site) diluted 500 times was added in an amount of 50 μl/well and reacted at room temperature for 60 minutes. 100 μl/well of a 10% diethanol amine buffer solution (pH 9.8) containing p-nitrophenyl phosphate as an enzyme substrate, was reacted, and the absorbance at 405 nm was measured. The amount of each antibody was calculated from the calibration curve of each standard antibody, and the IC50 value of the compound of the formula (I) on the antibody production was calculated using as the control value a value obtained in the absence of the compound of the formula (I).

[2] = system: IgGl antibody production from murine spleen B cells; experiment: Effects on the IgGl antibody production from murine spleen cells (LPS + IL4); format: cell-based, BALB/c mouse; conditions: Mus musculus, B-cell, 168 h, read-out: IC50 value, IgGl antibody production
Description: as §1, §2, §3

murine bone mallow cells = experiment: Effects on the murine bone mallow cells (proliferation, 3H-TdR uptake); format: cell-based, BALB/c mouse; conditions: Mus musculus
Description: Bone mallow cells were removed from the femur of a BALB/c mouse and suspended in a 10% FCS-RPMI solution. The cell suspension was put into a plastic Petri dish having a diameter of 10 cm and left to stand still (in an incubator, 5% CO2, at 37° C.). Two hours later, only floating cells were recovered, and adhesion cells were removed. 1×10^5 floating cells were cultured for 48 hours together with a 20% culture supernatant of L929 fibroblastoma and the compound of the formula (I) on a microplate with 96 wells by a 10% FCS-RPMI solution (in an incubator, 5% CO2, at 37° C.). Then, 0.5 μCi of ^3 H-TdR was added thereto, and the mixture was further cultured for 4 hours. Then, cells were collected by a cell harvester, and the radioactivity (dpm) of ^3 H-TdR uptaken into the cells, was measured. Such measured amounts of ^3 H-TdR uptaken into the cells were used as indices for the proliferation of bone mallow cells, and the radioactivity at each concentration (from 0.001 to 1,000 μg/ml) of the compound of the formula (I) was compared with the control value where the L929 culture supernatant was added alone, to calculate the IC50 value. In these Tables 12 and 13, the results of the bone mallow cells are shown by (c).
For the basic procedure of this test, reference was made to Seikagakujikken Koza compiled by Japan Biochemistry Association, Vol. 5, p. 266-270 (published by Tokyo Kagaku Dojin in 1986).

murine thymocytes = experiment: Effects on the mitogenic response by murine thymocytes (Con A stimulation, 3H-TdR uptake); format: cell-based, BALB/c murine; conditions: Mus musculus, Thymocyte, read-out: IC50 value, a (mitogenic response of murine thymocytes)
Description: Using BALB/c murine thymocytes, the effect of the compound of the formula (I) on the mitogenic response of lymphocytes to the stimulation by concanavalin A (hereinafter referred to simply as Con A, Product No. L-1000, manufactured by Vector Laboratories) was studied. Namely, 4×10^5 murine thymocytes were cultured for 48 hours on a microplate with 96 wells in a RPMI1640 solution containing 10% of a fetal bovine serum (hereinafter referred to simply as a 10% FCS-RPMI solution) together with Con A (5 μg/ml) and the compound of the formula (I) (in an incubator, 5% CO2, at 37° C.). Then, 0.5 μCi of ^3 H-thymidine (hereinafter referred to simply as ^3 H-TdR) was added thereto, and the mixture was further cultured for 4 hours. Then, cells were collected by a cell harvester, and the radioactivity (dpm) of ^3 H-TdR uptaken into cells was measured. Such measured amounts of ^3 H-TdR uptaken into the cells were used as indices of the mitogenic response of the murine thymocytes, and the radioactivity at each concentration (from 0.001 to 1,000 μg/ml) of the compound of the formula (I) was compared with the control value treated solely by Con A, to calculate IC50 value. In these Tables 12 and 13, the results of murine thymocytes are shown by (a).
For the basic procedure of this test, reference was made to Selected methods in cellular immunology, p. 144-146 (translated by Katsuyuki Imai et al., published by Rikogakusha, (1982)).

[3] = system: IgM antibody production from murine spleen B cells; experiment: Effects on the IgM antibody production from murine spleen cells (LPS + IL4); format: cell-based, BALB/c mouse; conditions: Mus musculus, B-cell, 168 h, read-out: IC50 value, IgM antibody production
Description: as §1, §2, §3

[4] = system: murine mixed lymphocyte reaction (spleen cells of BALB/c and C57BL/6 mice); experiment: Effects on the murine mixed lymphocyte reaction (3H-TdR uptake); format: cell-based; conditions: Mus musculus, BALB/c + C57BL/6 spleen cells, 48 hours, read-out: IC50 value, b (murine mixed lymphocyte reaction)
Description: Using spleen cells of BALB/c and C57BL/6 mice, the effect of the compound of the formula (I) on the murine mixed lymphocyte reaction in both sides, was studied. Namely, spleen cells of both types of mice were mixed in an equal amount of 5×10^5 cells each, and the mixed cells were cultured together with the compound of the formula (I) for 48 hours on a microplate with 96 wells by a 10% FCS-RPMI solution (in an incubator, 5% CO2, at 37° C.). Then, 0.5 μCi of ^3 H-TdR was added thereto, and the mixture was further cultured for from 16 to 18 hours. Then, cells were collected by a cell harvester, and the radioactivity (dpm) of ^3 H-TdR uptaken into the cells, was measured. Such measured amounts of ^3 H-TdR uptaken into the cells were used as indices for the mixed lymphocyte reaction, and the radioactivity at each concentration (from 0.001 to 1,000 μg/ml) of the compound of the formula (I) was compared with the non-treated control value, to calculate the Ic50 value.
For the basic procedure for this test, reference was made to Selected methods in cellular immunology, p. 147-149 (translated by Katsuyuki Imai et al., published by Rikogakusha, (1982)).

[5] = spleen B cells, LPS 10 μg/ml, IL4 100 U/ml, 7 days, enzyme-immunoassay
[6] = bone marrow cells, 20% L929 culture supernatant, 48 hours, 3H-TdR uptake, Tables 12-15, read-out: IC50 value, c (murine bone mallow cells)
[7] = BALB/c thymocytes, Con A 5 μg/ml, 48 hours, 3H-TdR uptake

SMILES | IC50 [1, 5] [µg/mL] | IC50 [2, 5] [µg/mL] | IC50 (murine bone mallow cells; [6]) [µg/mL] | IC50 (murine thymocytes; [7]) [µg/mL] | IC50 [3, 5] [µg/mL] | IC50 [4] [µg/mL] | IC50 [1] [µg/mL] | IC50 [2] [µg/mL] | IC50 (murine bone mallow cells; L929, read-out: IC50 value, c (murine bone mallow cells)) [µg/mL] | IC50 (murine thymocytes) [µg/mL] | IC50 [3] [µg/mL]
CC(C)CC(=O)O[C@H]1C=C[C@H]2CO[C@@H]1O2 [Compound 2, 1,6-anhydro-3,4-dideoxy-2-O-isovaleryl-β-D-threo-hex-3-enopyranose] | 370 | 300 | > 1000 | 350 (≈ 1650 µM) | 250 | 560 | – | – | – | – | –
C/C=C/C(=O)O[C@H]1C=C[C@H]2CO[C@@H]1O2 [Compound 3] | 0.024 | 2.4 | 130 (≈ 663 µM) | 0.0044 (≈ 0.0224 µM) | < 0.001 | 0.0044 | – | – | – | – | –
O=C(O[C@H]1C=C[C@H]2CO[C@@H]1O2)C1CCCCC1 [Compound 4] | 11 | 100 | 160 (≈ 671 µM) | 450 (≈ 1890 µM) | 56 | 140 | – | – | – | – | –
O=C(O[C@H]1C=C[C@H]2CO[C@@H]1O2)c1ccccc1 [Compound 5] | 71 | 300 | 150 (≈ 646 µM) | 130 (≈ 560 µM) | 170 | 130 | – | – | – | – | –
CCCCCC(=O)O[C@H]1C=C[C@H]2CO[C@@H]1O2 [Compound 6] | 210 | 450 | 270 (≈ 1190 µM) | 250 (≈ 1100 µM) | 330 | 540 | – | – | – | – | –
CCCCCCCCCCCCCCCC(=O)O[C@H]1C=C[C@H]2CO[C@@H]1O2 [Compound 7] | 180 | 330 | 89 (≈ 243 µM) | 49 (≈ 134 µM) | 410 | 76 | – | – | – | – | –
CCCCCCCC/C=C\CCCCCCCC(=O)O[C@H]1C=C[C@H]2CO[C@@H]1O2 [Compound 8] | 310 | 810 | > 1000 | – | 340 | – | – | – | – | – | –
CC(=O)O[C@H]1C=C[C@H]2CO[C@@H]1O2 [Compound 9] | 320 | 790 | > 1000 | – | 720 | – | – | – | – | – | –
O=C(CCl)O[C@H]1C=C[C@H]2CO[C@@H]1O2 [Compound 10] | < 0.001 | < 0.001 | 68 (≈ 332 µM) | 1.4 (≈ 6.84 µM) | < 0.001 | 18 | – | – | – | – | –
O=C(/C=C/c1ccccc1)O[C@H]1C=C[C@H]2CO[C@@H]1O2 [Compound 18] | < 0.001 | < 0.001 | 370 (≈ 1430 µM) | – | 0.68 | – | – | – | – | – | –
Nc1ccccc1C(=O)O[C@H]1C=C[C@H]2CO[C@@H]1O2 [Compound 19] | – | – | – | – | – | – | 32 | 24 | 160 (≈ 647 µM) | 0.39 (≈ 1.58 µM) | 76
COC(=O)O[C@H]1C=C[C@H]2CO[C@@H]1O2 [Compound 21, 1,6-anhydro-3,4-dideoxy-2-O-methoxycarbonyl-β-D-threo-hex-3-enopyranose] | 17 | 500 | > 1000 | – | 130 | – | – | – | – | – | –
CCCCCCCCCCCCCCCC(=O)O[C@@]1(C)C=C[C@H]2CO[C@@H]1O2 [Compound 33] | 460 | 340 | > 1000 | – | 5.6 | – | – | – | – | – | –
CO[C@H]1C=C[C@H]2CO[C@@H]1O2 [Compound 41, 1,6-anhydro-3,4-dideoxy-2-O-methyl-β-D-threo-hex-3-enopyranose] | 0.95 | 670 | > 1000 | – | > 1000 | – | – | – | – | – | –
